# Laboratory results published in ChEMBL document CHEMBL2331400, “Structure-based design and evaluation of naphthalene diimide G-quadruplex ligands as telomere targeting agents in pancreatic cancer cells” (J Med Chem, 2013).
# Activity calls are given as the source filed them. The rule behind the calls is not given here.
# Tested on: WI-38
# Experiment: Cytotoxicity against human WI38 cells assessed as growth inhibition after 96 hrs by SRB assay
# Type: cell-based
# Details: WI-38, 96 h
row,SMILES,IC50
1,CN1CCN(CCNc2cc3c4c(c(NCCN5CCN(C)CC5)cc5c4c2C(=O)N(CCCN2CCOCC2)C5=O)C(=O)N(CCCN2CCOCC2)C3=O)CC1,2460 nM
2,CN1CCN(CCCNc2cc3c4c(c(NCCCN5CCN(C)CC5)cc5c4c2C(=O)N(CCN2CCOCC2)C5=O)C(=O)N(CCN2CCOCC2)C3=O)CC1,610 nM
3,CN1CCN(CCNc2cc3c4c(c(NCCN5CCN(C)CC5)cc5c4c2C(=O)N(CCN2CCOCC2)C5=O)C(=O)N(CCN2CCOCC2)C3=O)CC1,1170 nM
4,CN1CCN(CCCNc2cc3c4c(c(NCCCN5CCN(C)CC5)cc5c4c2C(=O)N(Cc2ccco2)C5=O)C(=O)N(Cc2ccco2)C3=O)CC1,6840 nM

# Tested on: MIA PaCa-2
# Experiment: Cytotoxicity against human MIAPaCa2 cells assessed as growth inhibition after 96 hrs by SRB assay
# Type: functional, cell-based
# Details: MIA PaCa-2, 96 h
row,SMILES,IC50
1,CN1CCN(CCNc2cc3c4c(c(NCCN5CCN(C)CC5)cc5c4c2C(=O)N(CCCN2CCOCC2)C5=O)C(=O)N(CCCN2CCOCC2)C3=O)CC1,10 nM
2,CN1CCN(CCCNc2cc3c4c(c(NCCCN5CCN(C)CC5)cc5c4c2C(=O)N(CCN2CCOCC2)C5=O)C(=O)N(CCN2CCOCC2)C3=O)CC1,40 nM
3,CN1CCN(CCCNc2cc3c4c(c(NCCCN5CCN(C)CC5)cc5c4c2C(=O)N(Cc2ccco2)C5=O)C(=O)N(Cc2ccco2)C3=O)CC1,2830 nM

# Organism: Homo sapiens
# Experiment: Stabilization of human telomeric G-quadruplex DNA sequence 5'-FAM-d(GGG[TTAGGG]3)-TAMRA-3' assessed as melting temperature at 1 uM by FRET assay
# Details: not given
row,ΔTm,SMILES
1,27.8 °C,CN1CCN(CCNc2cc3c4c(c(NCCN5CCN(C)CC5)cc5c4c2C(=O)N(CCCN2CCOCC2)C5=O)C(=O)N(CCCN2CCOCC2)C3=O)CC1
2,27 °C,CN1CCN(CCCNc2cc3c4c(c(NCCCN5CCN(C)CC5)cc5c4c2C(=O)N(CCN2CCOCC2)C5=O)C(=O)N(CCN2CCOCC2)C3=O)CC1
3,24.7 °C,CN1CCN(CCNc2cc3c4c(c(NCCN5CCN(C)CC5)cc5c4c2C(=O)N(CCN2CCOCC2)C5=O)C(=O)N(CCN2CCOCC2)C3=O)CC1
4,0.2 °C,CN1CCN(CCCNc2cc3c4c(c(NCCCN5CCN(C)CC5)cc5c4c2C(=O)N(Cc2ccco2)C5=O)C(=O)N(Cc2ccco2)C3=O)CC1

# Tested on: unidentified
# Experiment: Stabilization of HSP90b promoter sequence 5'-FAM-d(GGGCGGGCCAAAGGGAAGGGG)-TAMRA-3' (unknown origin) assessed as melting temperature at 1 uM by FRET assay
# Details: not given
row,ΔTm,SMILES
1,31.1 °C,CN1CCN(CCNc2cc3c4c(c(NCCN5CCN(C)CC5)cc5c4c2C(=O)N(CCCN2CCOCC2)C5=O)C(=O)N(CCCN2CCOCC2)C3=O)CC1
2,29.1 °C,CN1CCN(CCCNc2cc3c4c(c(NCCCN5CCN(C)CC5)cc5c4c2C(=O)N(CCN2CCOCC2)C5=O)C(=O)N(CCN2CCOCC2)C3=O)CC1
3,27.6 °C,CN1CCN(CCNc2cc3c4c(c(NCCN5CCN(C)CC5)cc5c4c2C(=O)N(CCN2CCOCC2)C5=O)C(=O)N(CCN2CCOCC2)C3=O)CC1
4,1.1 °C,CN1CCN(CCCNc2cc3c4c(c(NCCCN5CCN(C)CC5)cc5c4c2C(=O)N(Cc2ccco2)C5=O)C(=O)N(Cc2ccco2)C3=O)CC1

# Tested on: unidentified
# Experiment: Stabilization of duplex DNA T-loop (unknown origin) 5'-FAM-dTATAGCTATA-HEG-TATAGCTATA-TAMRA-3' assessed as melting temperature at 1 uM by FRET assay
# Details: not given
row,ΔTm,SMILES
1,8.1 °C,CN1CCN(CCNc2cc3c4c(c(NCCN5CCN(C)CC5)cc5c4c2C(=O)N(CCCN2CCOCC2)C5=O)C(=O)N(CCCN2CCOCC2)C3=O)CC1
2,0.8 °C,CN1CCN(CCCNc2cc3c4c(c(NCCCN5CCN(C)CC5)cc5c4c2C(=O)N(CCN2CCOCC2)C5=O)C(=O)N(CCN2CCOCC2)C3=O)CC1
3,1.7 °C,CN1CCN(CCNc2cc3c4c(c(NCCN5CCN(C)CC5)cc5c4c2C(=O)N(CCN2CCOCC2)C5=O)C(=O)N(CCN2CCOCC2)C3=O)CC1
4,0.3 °C,CN1CCN(CCCNc2cc3c4c(c(NCCCN5CCN(C)CC5)cc5c4c2C(=O)N(Cc2ccco2)C5=O)C(=O)N(Cc2ccco2)C3=O)CC1

# Tested on: 786-0
# Experiment: Cytotoxicity against human 786-0 cells assessed as growth inhibition after 96 hrs by SRB assay
# Type: functional, cell-based
# Details: 786-0, 96 h
row,SMILES,IC50
1,CN1CCN(CCCNc2cc3c4c(c(NCCCN5CCN(C)CC5)cc5c4c2C(=O)N(CCN2CCOCC2)C5=O)C(=O)N(CCN2CCOCC2)C3=O)CC1,630 nM
2,CN1CCN(CCNc2cc3c4c(c(NCCN5CCN(C)CC5)cc5c4c2C(=O)N(CCN2CCOCC2)C5=O)C(=O)N(CCN2CCOCC2)C3=O)CC1,1480 nM
3,CN1CCN(CCCNc2cc3c4c(c(NCCCN5CCN(C)CC5)cc5c4c2C(=O)N(Cc2ccco2)C5=O)C(=O)N(Cc2ccco2)C3=O)CC1,1100 nM

# Tested on: MCF7
# Experiment: Cytotoxicity against human MCF7 cells assessed as growth inhibition after 96 hrs by SRB assay
# Type: functional, cell-based
# Details: MCF7, 96 h
row,SMILES,IC50
1,CN1CCN(CCNc2cc3c4c(c(NCCN5CCN(C)CC5)cc5c4c2C(=O)N(CCCN2CCOCC2)C5=O)C(=O)N(CCCN2CCOCC2)C3=O)CC1,30 nM
2,CN1CCN(CCCNc2cc3c4c(c(NCCCN5CCN(C)CC5)cc5c4c2C(=O)N(CCN2CCOCC2)C5=O)C(=O)N(CCN2CCOCC2)C3=O)CC1,170 nM
3,CN1CCN(CCNc2cc3c4c(c(NCCN5CCN(C)CC5)cc5c4c2C(=O)N(CCN2CCOCC2)C5=O)C(=O)N(CCN2CCOCC2)C3=O)CC1,180 nM
4,CN1CCN(CCCNc2cc3c4c(c(NCCCN5CCN(C)CC5)cc5c4c2C(=O)N(Cc2ccco2)C5=O)C(=O)N(Cc2ccco2)C3=O)CC1,2610 nM

# Tested on: A549
# Experiment: Cytotoxicity against human A549 cells assessed as growth inhibition after 96 hrs by SRB assay
# Type: functional, cell-based
# Details: A549, 96 h
row,SMILES,IC50
1,CN1CCN(CCNc2cc3c4c(c(NCCN5CCN(C)CC5)cc5c4c2C(=O)N(CCCN2CCOCC2)C5=O)C(=O)N(CCCN2CCOCC2)C3=O)CC1,< 10 nM
2,CN1CCN(CCCNc2cc3c4c(c(NCCCN5CCN(C)CC5)cc5c4c2C(=O)N(CCN2CCOCC2)C5=O)C(=O)N(CCN2CCOCC2)C3=O)CC1,1550 nM
3,CN1CCN(CCNc2cc3c4c(c(NCCN5CCN(C)CC5)cc5c4c2C(=O)N(CCN2CCOCC2)C5=O)C(=O)N(CCN2CCOCC2)C3=O)CC1,4930 nM
4,CN1CCN(CCCNc2cc3c4c(c(NCCCN5CCN(C)CC5)cc5c4c2C(=O)N(Cc2ccco2)C5=O)C(=O)N(Cc2ccco2)C3=O)CC1,2410 nM

# Tested on: MIA PaCa-2
# Experiment: Induction of senescence in human MIAPaCa2 cells at 3.3 to 6.6 nM after 7 days by beta-galactosidase assay relative to vehicle-treated control
# Type: functional
# Details: not given
row,SMILES,Activity
1,CN1CCN(CCCNc2cc3c4c(c(NCCCN5CCN(C)CC5)cc5c4c2C(=O)N(Cc2ccco2)C5=O)C(=O)N(Cc2ccco2)C3=O)CC1,50%

# Tested on: MIA PaCa-2
# Experiment: Inhibition of telomerase activity in human MIAPaCa2 cells assessed as telomere elongation up to 10 uM after 7 days by TRAP-LIG assay
# Type: cell-based
# Details: not given
row,SMILES,inhibition
1,CN1CCN(CCNc2cc3c4c(c(NCCN5CCN(C)CC5)cc5c4c2C(=O)N(CCCN2CCOCC2)C5=O)C(=O)N(CCCN2CCOCC2)C3=O)CC1,inactive

# Tested on: not listed separately
# Experiment: Cytotoxicity against human RCC4 cells assessed as growth inhibition after 96 hrs by SRB assay
# Type: functional, cell-based
# Details: RCC4, 96 h
row,SMILES,IC50
1,CN1CCN(CCNc2cc3c4c(c(NCCN5CCN(C)CC5)cc5c4c2C(=O)N(CCCN2CCOCC2)C5=O)C(=O)N(CCCN2CCOCC2)C3=O)CC1,280 nM
2,CN1CCN(CCCNc2cc3c4c(c(NCCCN5CCN(C)CC5)cc5c4c2C(=O)N(CCN2CCOCC2)C5=O)C(=O)N(CCN2CCOCC2)C3=O)CC1,1750 nM
3,CN1CCN(CCNc2cc3c4c(c(NCCN5CCN(C)CC5)cc5c4c2C(=O)N(CCN2CCOCC2)C5=O)C(=O)N(CCN2CCOCC2)C3=O)CC1,5100 nM
4,CN1CCN(CCCNc2cc3c4c(c(NCCCN5CCN(C)CC5)cc5c4c2C(=O)N(Cc2ccco2)C5=O)C(=O)N(Cc2ccco2)C3=O)CC1,3110 nM

# Tested on: unidentified
# Experiment: Stabilization of HSP90a promoter sequence 5'-FAM-d(GGGCCAAAGGGAAGGGGTGGG)-TAMRA-3' (unknown origin) assessed as melting temperature at 1 uM by FRET assay
# Details: not given
row,ΔTm,SMILES
1,31.9 °C,CN1CCN(CCNc2cc3c4c(c(NCCN5CCN(C)CC5)cc5c4c2C(=O)N(CCCN2CCOCC2)C5=O)C(=O)N(CCCN2CCOCC2)C3=O)CC1
2,33.9 °C,CN1CCN(CCCNc2cc3c4c(c(NCCCN5CCN(C)CC5)cc5c4c2C(=O)N(CCN2CCOCC2)C5=O)C(=O)N(CCN2CCOCC2)C3=O)CC1
3,30.6 °C,CN1CCN(CCNc2cc3c4c(c(NCCN5CCN(C)CC5)cc5c4c2C(=O)N(CCN2CCOCC2)C5=O)C(=O)N(CCN2CCOCC2)C3=O)CC1
4,0.9 °C,CN1CCN(CCCNc2cc3c4c(c(NCCCN5CCN(C)CC5)cc5c4c2C(=O)N(Cc2ccco2)C5=O)C(=O)N(Cc2ccco2)C3=O)CC1
